Assays:
Experiment in all cases: KiNativ profiling in human PBMCs
Assay type in all cases: binding
[1] = system: T1, PFTAIRE1
T1 construct: purchased ActivX Technologies (KiNativ)
Summary of the method: (§1)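 Steps: expose living PBMCs to compound (0.1 µM or 1 µM); perform KiNativ-based kinase profiling.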

[2] = system: T2, GSK3B; details: Lys2
T2 construct: purchased ActivX Technologies (KiNativ)
Summary of the method: as §1

[3] = system: p38d,p38g; details: Lys2
Summary of the method: as §1

[4] = system: T3, MAP3K5; details: Lys2
T3 construct: purchased ActivX Technologies (KiNativ)
Summary of the method: as §1

[5] = system: T4, PAN3; details: ATP
T4 construct: purchased ActivX Technologies (KiNativ)
Summary of the method: as §1

[6] = system: p70S6K,p70S6Kb; details: ATP Loop
Summary of the method: as §1

[7] = system: PKCa,PKCb; details: Lys2
Summary of the method: as §1

[8] = system: T5, PKD2; details: Lys1
T5 construct: purchased ActivX Technologies (KiNativ)
Summary of the method: as §1

[9] = system: T6, GCN2
T6 construct: purchased ActivX Technologies (KiNativ)
Summary of the method: as §1

[10] = system: FYN,SRC,YES; details: Activation Loop
Summary of the method: as §1

[11] = system: T7, TBK1; details: Lys1
T7 construct: purchased ActivX Technologies (KiNativ)
Summary of the method: as §1

[12] = system: T8, LATS2
T8 construct: purchased ActivX Technologies (KiNativ)
Summary of the method: as §1

[13] = system: ABL,ARG
Summary of the method: as §1

[14] = system: T9, PRPK; details: ATP Loop
T9 construct: purchased ActivX Technologies (KiNativ)
Summary of the method: as §1

[15] = system: T10, TLK1
T10 construct: purchased ActivX Technologies (KiNativ)
Summary of the method: as §1

[16] = system: T11, IKKe; details: Lys1
T11 construct: purchased ActivX Technologies (KiNativ)
Summary of the method: as §1

[17] = system: PCTAIRE1,PCTAIRE3; details: Lys2
Summary of the method: as §1

[18] = system: T12, RSK3 domain1; details: Lys2
T12 construct: RSK3 domain1; purchased ActivX Technologies (KiNativ)
Summary of the method: as §1

[19] = system: T13, PIK3C3; details: ATP
T13 construct: purchased ActivX Technologies (KiNativ)
Summary of the method: as §1

[20] = system: MAP3K2,MAP3K3; details: Lys2
Summary of the method: as §1

[21] = system: T14, FRAP; details: 0.1µM; ATP
T14 construct: purchased ActivX Technologies (KiNativ)
Summary of the method: as §1

[22] = system: T15, MAP3K1; details: Lys2
T15 construct: purchased ActivX Technologies (KiNativ)
Summary of the method: as §1

[23] = system: T16, PCTAIRE2; details: Lys2
T16 construct: purchased ActivX Technologies (KiNativ)
Summary of the method: as §1

[24] = system: T17, NEK9
T17 construct: purchased ActivX Technologies (KiNativ)
Summary of the method: as §1

[25] = system: T18, PIK3CG; details: ATP
T18 construct: purchased ActivX Technologies (KiNativ)
Summary of the method: as §1

[26] = system: T19, MAP3K4; details: Lys2
T19 construct: purchased ActivX Technologies (KiNativ)
Summary of the method: as §1

[27] = system: T20, HCK
T20 construct: purchased ActivX Technologies (KiNativ)
Summary of the method: as §1

[28] = system: T21, STLK5
T21 construct: purchased ActivX Technologies (KiNativ)
Summary of the method: as §1

[29] = system: T22, IRE1; details: Lys2
T22 construct: purchased ActivX Technologies (KiNativ)
Summary of the method: as §1

[30] = system: T23, LOK
T23 construct: purchased ActivX Technologies (KiNativ)
Summary of the method: as §1

[31] = system: T24, NEK8; details: Lys2
T24 construct: purchased ActivX Technologies (KiNativ)
Summary of the method: as §1

[32] = system: T25, LRRK2
T25 construct: purchased ActivX Technologies (KiNativ)
Summary of the method: as §1

[33] = system: T26, GCK
T26 construct: purchased ActivX Technologies (KiNativ)
Summary of the method: as §1

[34] = system: T27, MAP3K6; details: Lys2
T27 construct: purchased ActivX Technologies (KiNativ)
Summary of the method: as §1

[35] = system: T28, RIPK3; details: Lys2
T28 construct: purchased ActivX Technologies (KiNativ)
Summary of the method: as §1

[36] = system: T29, LATS1
T29 construct: purchased ActivX Technologies (KiNativ)
Summary of the method: as §1

[37] = system: T30, FER
T30 construct: purchased ActivX Technologies (KiNativ)
Summary of the method: as §1

Structure (SMILES): Cn1cc(-c2c[nH]c3ncnc(N4CCOCC4)c23)cc1C#N [PFE-360]
- % Inhibition ([1]; 0.1µM, Lys1): 1.9%
- % Inhibition ([1]; 0.1µM, Lys2): -4%
- % Inhibition ([1]; 1µM, Lys1): -2%
- % Inhibition ([1]; 1µM, Lys2): -1.5%
- % Inhibition ([2]; 0.1µM): 11.2%
- % Inhibition ([2]; 1µM): 14.9%
- % Inhibition ([3]; 0.1µM): 0.8%
- % Inhibition ([3]; 1µM): -7.7%
- % Inhibition ([4]; 0.1µM): 44.3%
- % Inhibition ([4]; 1µM): 60.3%
- % Inhibition ([5]; 0.1µM): -22.1%
- % Inhibition ([5]; 1µM): 10.4%
- % Inhibition ([6]; 0.1µM): -0.2%
- % Inhibition ([6]; 1µM): 13.2%
- % Inhibition ([7]; 0.1µM): -32.8%
- % Inhibition ([7]; 1µM): -10.6%
- % Inhibition ([8]; 0.1µM): 3.7%
- % Inhibition ([8]; 1µM): -5.1%
- % Inhibition ([9]; 0.1µM, Lys1): 3.5%
- % Inhibition ([9]; 0.1µM, Lys2): -3.6%
- % Inhibition ([9]; 1µM, Lys1): -13.3%
- % Inhibition ([9]; 1µM, Lys2): 2.5%
- % Inhibition ([10]; 0.1µM): -0.7%
- % Inhibition ([10]; 1µM): 8.2%
- % Inhibition ([11]; 0.1µM): -29%
- % Inhibition ([11]; 1µM): 2.1%
- % Inhibition ([12]; 0.1µM, Lys1): -10.2%
- % Inhibition ([12]; 0.1µM, Lys2): 5.5%
- % Inhibition ([12]; 1µM, Lys1): 16.6%
- % Inhibition ([12]; 1µM, Lys2): -0.4%
- % Inhibition ([13]; 0.1µM, Activation Loop): -15.2%
- % Inhibition ([13]; 0.1µM, Lys1): -22.4%
- % Inhibition ([13]; 1µM, Activation Loop): -0.3%
- % Inhibition ([13]; 1µM, Lys1): 1.3%
- % Inhibition ([14]; 0.1µM): 2.6%
- % Inhibition ([14]; 1µM): 8.1%
- % Inhibition ([15]; 0.1µM, Lys1): -0.5%
- % Inhibition ([15]; 0.1µM, Lys2): 0%
- % Inhibition ([15]; 1µM, Lys1): 3.9%
- % Inhibition ([15]; 1µM, Lys2): -13.2%
- % Inhibition ([16]; 0.1µM): 2.3%
- % Inhibition ([16]; 1µM): 7.7%
- % Inhibition ([17]; 0.1µM): 1.3%
- % Inhibition ([17]; 1µM): 11.4%
- % Inhibition ([18]; 0.1µM): 5.5%
- % Inhibition ([18]; 1µM): 8.1%
- % Inhibition ([19]; 0.1µM, peptide TEDGGKYPVIFKHGDDLR): -2.7%
- % Inhibition ([19]; 0.1µM, peptide TEDGGKYPVIFKHGDDLRQDQLILQIISLMDK): -22.4%
- % Inhibition ([19]; 1µM, peptide TEDGGKYPVIFKHGDDLR): -7.9%
- % Inhibition ([19]; 1µM, peptide TEDGGKYPVIFKHGDDLRQDQLILQIISLMDK): -43.1%
- % Inhibition ([20]; 0.1µM): -2.6%
- % Inhibition ([20]; 1µM): -12.9%
- % Inhibition [21]: -1.2%
- % Inhibition ([22]; 0.1µM): 7%
- % Inhibition ([22]; 1µM): -26.4%
- % Inhibition ([23]; 0.1µM): -2.4%
- % Inhibition ([23]; 1µM): -5.2%
- % Inhibition ([24]; 0.1µM, Lys1): -10.6%
- % Inhibition ([24]; 0.1µM, Lys2): 8.9%
- % Inhibition ([24]; 1µM, Lys1): -19.6%
- % Inhibition ([24]; 1µM, Lys2): 5.7%
- % Inhibition ([25]; 0.1µM): -1.2%
- % Inhibition ([25]; 1µM): -7%
- % Inhibition ([26]; 0.1µM): -0.3%
- % Inhibition ([26]; 1µM): -7.3%
- % Inhibition ([27]; 0.1µM, Activation Loop): -0.8%
- % Inhibition ([27]; 0.1µM, Lys1): -20.8%
- % Inhibition ([27]; 1µM, Activation Loop): -4.1%
- % Inhibition ([27]; 1µM, Lys1): 12.3%
- % Inhibition ([28]; 0.1µM, Activation Loop): -11%
- % Inhibition ([28]; 0.1µM, Lys2): 10.9%
- % Inhibition ([28]; 1µM, Activation Loop): -2.2%
- % Inhibition ([28]; 1µM, Lys2): -15.8%
- % Inhibition ([29]; 0.1µM): -14.5%
- % Inhibition ([29]; 1µM): 10.8%
- % Inhibition ([30]; 0.1µM, ATP Loop): 26.9%
- % Inhibition ([30]; 0.1µM, Lys1): 5.3%
- % Inhibition ([30]; 0.1µM, Lys2): -2.3%
- % Inhibition ([30]; 1µM, ATP Loop): 29.8%
- % Inhibition ([30]; 1µM, Lys1): 39.7%
- % Inhibition ([30]; 1µM, Lys2): 22.4%
- % Inhibition ([31]; 0.1µM): -1.8%
- % Inhibition ([31]; 1µM): -12.1%
- % Inhibition ([32]; 0.1µM, Lys1): >90%
- % Inhibition ([32]; 0.1µM, Lys2): 93.8%
- Inhibition ([32]; 0.1µM, Lys2): full inhibition
- % Inhibition ([32]; 1µM, Lys1): >90%
- % Inhibition ([32]; 1µM, Lys2): 96.7%
- % Inhibition ([33]; 0.1µM, Lys1): 7.4%
- % Inhibition ([33]; 0.1µM, Lys2): 6.5%
- % Inhibition ([33]; 1µM, Lys1): 11.4%
- % Inhibition ([33]; 1µM, Lys2): -7.7%
- % Inhibition ([34]; 0.1µM): -5.9%
- % Inhibition ([34]; 1µM): -0.1%
- % Inhibition ([35]; 0.1µM): 16.1%
- % Inhibition ([35]; 1µM): 27.3%
- % Inhibition ([36]; 0.1µM, Lys1): 5.2%
- % Inhibition ([36]; 0.1µM, Lys2): 3.2%
- % Inhibition ([36]; 1µM, Lys1): 0.9%
- % Inhibition ([36]; 1µM, Lys2): 0.1%
- % Inhibition ([37]; 0.1µM, Activation Loop): 10%
- % Inhibition ([37]; 0.1µM, Lys1): -2%
- % Inhibition ([37]; 1µM, Activation Loop): 4.9%
- % Inhibition ([37]; 1µM, Lys1): -3.4%

From publication PMC5578959, “Selective LRRK2 kinase inhibition reduces phosphorylation of endogenous Rab10 and Rab12 in human peripheral mononuclear blood cells” (Scientific Reports, 2017)
